Laboratory results taken from ChEMBL document CHEMBL3045430, “Natural products-based insecticidal agents 11. Synthesis and insecticidal activity of novel 4α-arylsulfonyloxybenzyloxy-2β-chloropodophyllotoxin derivatives against Mythimna separata Walker in vivo” (2011).
Calls of active or inactive are those of the source. The calls are words filed in the database; no cut-off is given here.

Legend:
Mythimna separata [1] = test: In vivo insecticidal activity against pre-third-instar larval stage of Mythimna separata (Oriental armyworm) in corn leaves assessed as corrected mortality rate at 1 mg/ml treated for 3 secs before larval infestation on corn leaves measured after 35 days by leaf-dipping method; assay type: functional; details: 840 h
Mythimna separata [2] = test: In vivo insecticidal activity against pre-third-instar larval stage of Mythimna separata (Oriental armyworm) in corn leaves assessed as corrected mortality rate at 1 mg/ml treated for 3 secs before larval infestation on corn leaves measured after 20 days by leaf-dipping method; assay type: functional; details: 480 h
Mythimna separata [3] = test: In vivo insecticidal activity against pre-third-instar larval stage of Mythimna separata (Oriental armyworm) in corn leaves assessed as corrected mortality rate at 1 mg/ml treated for 3 secs before larval infestation on corn leaves measured after 10 days by leaf-dipping method; assay type: functional; details: 240 h
Mythimna separata [4] = test: In vivo insecticidal activity against pre-third-instar larval stage of Mythimna separata (Oriental armyworm) in corn leaves assessed as induction of slim and wrinkled larval bodies at 1 mg/ml treated for 3 secs before larval infestation on corn leaves measured after 48 hr by leaf-dipping method; assay type: functional, organism-based
Mythimna separata [5] = test: In vivo insecticidal activity against pre-third-instar larval stage of Mythimna separata (Oriental armyworm) in corn leaves assessed as induction of malformed pupae at 1 mg/ml treated for 3 secs before larval infestation on corn leaves measured after […] by leaf-dipping method; assay type: functional, organism-based
Mythimna separata [6] = test: In vivo insecticidal activity against pre-third-instar larval stage of Mythimna separata (Oriental armyworm) in corn leaves assessed as induction of malformed moth with imperfect wings at 1 mg/ml treated for 3 secs before larval infestation on corn leaves measured after […] by leaf-dipping method; assay type: functional, organism-based

Row | Compound | mortality at 1000 µg/mL (Mythimna separata [1]) | mortality at 1000 µg/mL (Mythimna separata [2]) | mortality at 1000 µg/mL (Mythimna separata [3]) | Activity (Mythimna separata [4]) | Activity (Mythimna separata [5]) | Activity (Mythimna separata [6])
1 | CCc1ccc(S(=O)(=O)Oc2ccccc2CO[C@H]2c3cc4c(cc3[C@@H](c3cc(OC)c(OC)c(OC)c3)[C@@]3(Cl)C(=O)OC[C@H]23)OCO4)cc1 | 68% | 57.7% | 35.7% | Active |  | 
2 | COc1cc([C@@H]2c3cc4c(cc3[C@H](OCc3ccc(OS(=O)(=O)c5ccccc5)cc3)[C@H]3COC(=O)[C@]23Cl)OCO4)cc(OC)c1OC | 36% | 30.8% | 14.3% |  | Active | 
3 | COc1ccc(S(=O)(=O)Oc2ccccc2CO[C@H]2c3cc4c(cc3[C@@H](c3cc(OC)c(OC)c(OC)c3)[C@@]3(Cl)C(=O)OC[C@H]23)OCO4)cc1 | 48% | 34.6% | 17.9% |  |  | Active
4 | COc1cc([C@@H]2c3cc4c(cc3[C@H](O)[C@H]3COC(=O)[C@]23Cl)OCO4)cc(OC)c1OC [2BETA-CHLOROPODOPHYLLOTOXIN] | 36% | 15.4% | 14.3% |  |  | 
5 | COc1cc([C@@H]2c3cc4c(cc3[C@H](OCc3ccccc3OS(=O)(=O)c3ccccc3)[C@H]3COC(=O)[C@]23Cl)OCO4)cc(OC)c1OC | 40% | 26.9% | 7.1% |  | Active | Active
6 | CCc1ccc(S(=O)(=O)Oc2ccc(CO[C@H]3c4cc5c(cc4[C@@H](c4cc(OC)c(OC)c(OC)c4)[C@@]4(Cl)C(=O)OC[C@H]34)OCO5)cc2)cc1 | 56% | 38.5% | 14.3% | Active |  | 
7 | COc1cc([C@@H]2c3cc4c(cc3[C@H](OCc3ccc(OS(=O)(=O)c5cccc([N+](=O)[O-])c5)cc3)[C@H]3COC(=O)[C@]23Cl)OCO4)cc(OC)c1OC | 52% | 38.5% | 14.3% |  | Active | 
8 | COc1cc([C@@H]2c3cc4c(cc3[C@H](OCc3ccc(OS(=O)(=O)c5ccc(C)cc5)cc3)[C@H]3COC(=O)[C@]23Cl)OCO4)cc(OC)c1OC | 40% | 38.5% | 17.9% |  | Active | 
9 | COc1cc([C@@H]2c3cc4c(cc3[C@H](OCc3ccccc3OS(=O)(=O)c3ccc(Cl)cc3)[C@H]3COC(=O)[C@]23Cl)OCO4)cc(OC)c1OC | 48% | 34.6% | 7.1% |  |  | Active
10 | COc1cc([C@@H]2c3cc4c(cc3[C@H](OCc3ccccc3OS(=O)(=O)c3cccc([N+](=O)[O-])c3)[C@H]3COC(=O)[C@]23Cl)OCO4)cc(OC)c1OC | 36% | 34.6% | 10.7% |  | Active | Active
11 | CC(=O)O[C@@H]1C[C@H](O)[C@@]23CO[C@@H](O)[C@]1(C)[C@@H]2C[C@@H](O)[C@]1(C)[C@@H]3C(=O)[C@H](OC(C)=O)[C@@]2(C)[C@H](c3ccoc3)C[C@H]3O[C@]321 [TOOSENDANIN] | 48% | 34.6% | 17.9% |  |  | 
12 | COc1cc([C@@H]2c3cc4c(cc3[C@H](OCc3ccc(OS(=O)(=O)c5ccc(Cl)cc5)cc3)[C@H]3COC(=O)[C@]23Cl)OCO4)cc(OC)c1OC | 40% | 38.5% | 28.6% |  |  | 
13 | COc1cc([C@@H]2c3cc4c(cc3[C@H](OCc3ccccc3OS(=O)(=O)c3ccc(Cl)c([N+](=O)[O-])c3)[C@H]3COC(=O)[C@]23Cl)OCO4)cc(OC)c1OC | 72% | 57.7% | 25% | Active | Active | 
14 | COc1ccc(S(=O)(=O)Oc2ccc(CO[C@H]3c4cc5c(cc4[C@@H](c4cc(OC)c(OC)c(OC)c4)[C@@]4(Cl)C(=O)OC[C@H]34)OCO5)cc2)cc1 | 48% | 34.6% | 21.4% |  |  | 
15 | COc1cc([C@@H]2c3cc4c(cc3[C@H](O)[C@H]3COC(=O)[C@H]23)OCO4)cc(OC)c1OC [PODOFILOX] | 40% | 23.1% | 17.9% |  |  | 
16 | COc1cc([C@@H]2c3cc4c(cc3[C@H](OCc3ccc(OS(=O)(=O)c5ccc(Cl)c([N+](=O)[O-])c5)cc3)[C@H]3COC(=O)[C@]23Cl)OCO4)cc(OC)c1OC | 48% | 26.9% | 17.9% |  |  | 
17 | COc1cc([C@@H]2c3cc4c(cc3[C@H](OCc3ccccc3)[C@H]3COC(=O)[C@]23Cl)OCO4)cc(OC)c1OC [4ALPHA-BENZYLOXY-2-CHLOROPODOPHYLLOTOXIN] | 52% | 19.2% | 10.7% |  |  | 
18 | COc1cc([C@@H]2c3cc4c(cc3[C@H](OCc3ccccc3OS(=O)(=O)c3ccc(C)cc3)[C@H]3COC(=O)[C@]23Cl)OCO4)cc(OC)c1OC | 52% | 34.6% | 21.4% |  |  | 
